Assay results: patent US9006455B2 (Bristol-Myers Squibb Company, priority 2009, dated 2015)
pEC50: −log10 of the molar value. Where two headings read alike, the source gives them in different places.

Tested on: HCV 1b genotype
Assay: HCV Replicon assay (HCV 1b genotype)
Type: cell-based
Details: Hepatitis C virus, HCV 1b genotype replicon
Procedure: An HCV Replicon assay was utilized in the present disclosure, and was prepared, conducted and validated as described in commonly owned PCT/US2006/022197 and in O'Boyle et al., Antimicrob. Agents Chemother., 49(4):1346-1353 (April 2005). Assay methods incorporating luciferase reporters have also been used as described (Apath.com).
HCV-neo replicon cells and replicon cells containing resistance substitutions in the NS5A region were used to test the currently described family of compounds. The compounds were determined to have differing degrees of reduced inhibitory activity on cells containing mutations vs. the corresponding inhibitory potency against wild-type cells. Thus, the compounds of the present disclosure can be effective in inhibiting the function of the HCV NS5A protein and are understood to be as effective in combinations as previously described in application PCT/US2006/022197 and commonly owned WO 04/014852. It should be understood that the compounds of the present disclosure can inhibit multiple genotypes of HCV. […] In one embodiment, compounds of the present disclosure are inhibitory versus 1a, 1b, 2a, 2b, 3a, 4a, and 5a genotypes.

[1] = read-out: Range (EC50 values against HCV 1b)

| SMILES | pEC50 [1] | pEC50 (read-out: EC50) |
| --- | --- | --- |
| O=C([C@@H](c1ccccc1)N1CCCCC1)N1CCC[C@H]1c1nc2cc(-c3ccc4ccc(-c5ccc6nc([C@@H]7CCCN7C(=O)[C@@H](c7ccccc7)N7CCCCC7)[nH]c6c5)cc4c3)ccc2[nH]1 [Example 15, 5,5′-(2,7-Naphthalenediyl)bis(2-((2S)-1-((2R)-2-phenyl-2-(1-piperidinyl)acetyl)-2-pyrrolidinyl)-1H-benzimidazole)] | 9.00 to 11.00 | – |
| COC(=O)N[C@H](C(=O)N1CCC[C@H]1c1ncc(C#Cc2ccc3cc(C#Cc4cnc([C@@H]5CCCN5C(=O)[C@@H](NC(=O)OC)C(C)C)[nH]4)ccc3c2)[nH]1)C(C)C [Example 31, Methyl((1S)-1-(((2S)-2-(4-((6-((2-((2S)-1-((2S)-2-((methoxycarbonyl)amino)-3-methylbutanoyl)-2-pyrrolidinyl)-1H-imidazol-4-yl)ethynyl)-2-naphthyl)ethynyl)-1H-imidazol-2-yl)-1-pyrrolidinyl)carbonyl)-2-methylpropyl)carbamate] | 9.00 to 11.00 | – |
| COC(=O)N[C@H](C(=O)N1CCC[C@@H]1c1nc2nc(-c3ccc4cc(-c5cnc6[nH]c([C@@H]7CCCN7C(=O)[C@@H](NC(=O)OC)C(C)C)nc6n5)ccc4c3)cnc2[nH]1)C(C)C [Example 25A, Methyl((1S)-1-(((2S)-2-(5-(6-(2-((2R)-1-((2S)-2-((methoxycarbonyl)amino)-3-methylbutanoyl)-2-pyrrolidinyl)-1H-imidazo[4,5-b]pyrazin-5-yl)-2-naphthyl)-1H-imidazo[4,5-b]pyrazin-2-yl)-1-pyrrolidinyl)carbonyl)-2-methylpropyl)carbamate] | 6.00 to 9.00 | – |
| CC(=O)N1[C@@H](C)CC[C@H]1c1ncc(-c2ccc(-c3ccc4cc(-c5cnc([C@@H]6CC[C@H](C)N6C(C)=O)[nH]5)ccc4c3)cc2)[nH]1 [Example 109, 2-((2S,5S)-1-Acetyl-5-methyl-2-pyrrolidinyl)-4-(4-(6-(2-((2S,5S)-1-acetyl-5-methyl-2-pyrrolidinyl)-1H-imidazol-4-yl)-2-naphthyl)phenyl)-1H-imidazole] | 6.00 to 9.00 | 6.74 |
| COC(=O)N[C@H](C(=O)N(C)[C@@H](C)c1ncc(-c2ccc(-c3ccc4cc(-c5cnc([C@H](C)N(C)C(=O)[C@@H](NC(=O)OC)C(C)C)[nH]5)ccc4c3)cc2)[nH]1)C(C)C [Example 126, Methyl((1S)-1-(((1S)-1-(4-(4-(6-(2-((1S)-1-(((2S)-2-((methoxycarbonyl)amino)-3-methylbutanoyl)(methyl)amino)ethyl)-1H-imidazol-4-yl)-2-naphthyl)phenyl)-1H-imidazol-2-yl)ethyl)(methyl)carbamoyl)-2-methylpropyl)carbamate] | 9.00 to 11.00 | 9.18 |
| COC(=O)N[C@H](C(=O)N1CCC[C@H]1c1nc2ncc(-c3ccc4cc(-c5cnc6nc([C@@H]7CCCN7C(=O)[C@@H](NC(=O)OC)C(C)C)[nH]c6c5)ccc4c3)cc2[nH]1)C(C)C [Example 22, Methyl((1S)-1-(((2S)-2-(6-(6-(2-((2S)-1-((2S)-2-((methoxycarbonyl)amino)-3-methylbutanoyl)-2-pyrrolidinyl)-1H-imidazo[4,5-b]pyridin-6-yl)-2-naphthyl)-1H-imidazo[4,5-b]pyridin-2-yl)-1-pyrrolidinyl)carbonyl)-2-methylpropyl)carbamate] | 9.00 to 11.00 | – |
| COC(=O)N[C@H](C(=O)N1CCC[C@H]1c1ncc(-c2ccc3cc(-c4ccc5c(ccc6nc([C@@H]7CCCN7C(=O)[C@@H](NC(=O)OC)C7CCOCC7)[nH]c65)c4)ccc3c2)[nH]1)C1CCOCC1 [Example 42] | 9.00 to 11.00 | – |
| CC(C)(C)OC(=O)N1[C@@H]2C[C@@H]2C[C@H]1c1nc2ccc(-c3ccc4nc(-c5ccc6nc([C@@H]7C[C@H]8C[C@H]8N7C(=O)OC(C)(C)C)[nH]c6c5)ccc4c3)cc2[nH]1 [Intermediate 70, tert-Butyl(1R,3S,5R)-3-(5-(2-(2-((1R,3S,5R)-2-(tert-butoxycarbonyl)-2-azabicyclo[3.1.0]hex-3-yl)-1H-benzimidazol-6-yl)-6-quinolinyl)-1H-benzimidazol-2-yl)-2-azabicyclo[3.1.0]hexane-2-carboxylate] | 6.00 to 9.00 | – |
| COC(=O)N[C@H](C(=O)N1CCC[C@H]1c1nc2nc(-c3ccc4cc(-c5cnc6[nH]c([C@@H]7CCCN7C(=O)[C@@H](NC(=O)OC)C(C)C)nc6n5)ccc4c3)cnc2[nH]1)C(C)C [Example 24, Methyl((1S)-1-(((2S)-2-(5-(6-(2-((2S)-1-((2S)-2-((methoxycarbonyl)amino)-3-methylbutanoyl)-2-pyrrolidinyl)-1H-imidazo[4,5-b]pyrazin-5-yl)-2-naphthyl)-1H-imidazo[4,5-b]pyrazin-2-yl)-1-pyrrolidinyl)carbonyl)-2-methylpropyl)carbamate] | 9.00 to 11.00 | – |
| COC(=O)N[C@H](C(=O)N1CCC[C@H]1c1ncc(-c2ccc(-c3ccc4ccc(-c5ccc6nc([C@@H]7CCCN7C(=O)[C@@H](NC(=O)OC)C(C)C)[nH]c6c5)cc4c3)cc2)[nH]1)C(C)C [Example 4, Methyl((1S)-1-(((2S)-2-(4-(4-(7-(2-((2S)-1-((2S)-2-((methoxycarbonyl)amino)-3-methylbutanoyl)-2-pyrrolidinyl)-1H-benzimidazol-5-yl)-2-naphthyl)phenyl)-1H-imidazol-2-yl)-1-pyrrolidinyl)carbonyl)-2-methylpropyl)carbamate] | 6.00 to 9.00 | – |
| COC(=O)N[C@H](C(=O)N1[C@@H]2C[C@@H]2C[C@H]1c1ncc(C#Cc2ccc3cc(-c4cnc([C@@H]5C[C@H]6C[C@H]6N5C(=O)[C@@H](NC(=O)OC)C5CCOCC5)[nH]4)ccc3c2)[nH]1)C1CCOCC1 [Example 82, Methyl((1S)-2-((1R,3S,5R)-3-(4-(6-((2-((1R,3S,5R)-2-((2S)-2-((methoxycarbonyl)amino)-2-(tetrahydro-2H-pyran-4-yl)acetyl)-2-azabicyclo[3.1.0]hex-3-yl)-1H-imidazol-4-yl)ethynyl)-2-naphthyl)-1H-imidazol-2-yl)-2-azabicyclo[3.1.0]hex-2-yl)-2-oxo-1-(tetrahydro-2H-pyran-4-yl)ethyl)carbamate] | 9.00 to 11.00 | 10.37 |
| COC(=O)N[C@H](C(=O)N1CCC[C@H]1c1ncc(-c2ccc3cc(-c4cnc([C@@H]5CCCN5C(=O)[C@@H](NC(=O)OC)C(C)C)[nH]4)ccc3c2)[nH]1)C(C)C [Example 32] | 9.00 to 11.00 | – |
| COC(=O)N[C@H](C(=O)N1CCC[C@H]1c1nc2ccc(-c3ccc4cc(-c5ccc6nc([C@@H]7CCCN7C(=O)[C@@H](NC(=O)OC)C7CCOCC7)[nH]c6c5)ccc4c3)cc2[nH]1)C(C)C [Example 27, Methyl((1S)-2-((2S)-2-(5-(6-(2-((2S)-1-((2S)-2-((methoxycarbonyl)amino)-3-methylbutanoyl)-2-pyrrolidinyl)-1H-benzimidazol-5-yl)-2-naphthyl)-1H-benzimidazol-2-yl)-1-pyrrolidinyl)-2-oxo-1-(tetrahydro-2H-pyran-4-yl)ethyl)carbamate] | – | 11.32 |
| COC(=O)N[C@@H](C)C(=O)N1CCC[C@H]1c1nc2ccc(-c3ccc4cc(-c5ccc6nc([C@@H]7CCCN7C(=O)[C@H](C)NC(=O)OC)[nH]c6c5)ccc4c3)cc2[nH]1 [Example 5, Methyl((1S)-2-((2S)-2-(5-(6-(2-((2S)-1-(N-(methoxycarbonyl)-L-alanyl)-2-pyrrolidinyl)-1H-benzimidazol-5-yl)-2-naphthyl)-1H-benzimidazol-2-yl)-1-pyrrolidinyl)-1-methyl-2-oxoethyl)carbamate] | 9.00 to 11.00 | – |
